Measurements from patent US11701371B2, “ENPP1 inhibitors and their use for the treatment of cancer” (THE BOARD OF TRUSTEES OF THE LELAND STANFORD JUNIOR …, priority 2017, dated 2023).
Blank lines part the entries; values can stand above or below the compound they belong to.

Experiments:
[1] = target: T1, purified recombinant mouse ENPP1 (Mus musculus (Mouse), UniProt P06802); experiment: ENPP1 enzyme activity assay using 32P cGAMP as a substrate; format: biochemical; conditions: 32P-cGAMP 5 μM, mouse ENPP1 20 nM, pH 7.5, 5 hours
[2] = target: T1, purified recombinant mouse ENPP1; experiment: ENPP1 activity assay using TMP-pNP as a substrate; format: biochemical; conditions: TMP-pNP 2 μM, mouse ENPP1 0.5 nM, pH 7.5
Experimental: Selected compounds of Table 1, Table 2 and other derivatives were prepared and assessed in an ENPP1 activity assay using thymidine monophosphate paranitrophenol (TMP-pNP) as a substrate. Enzyme reactions were prepared with TMP-pNP (2 μM), 5-fold dilutions of ENPP1 inhibitor, and purified recombinant mouse ENPP1 (0.5 nM) in 100 mM Tris, 150 mM NaCl, 2 mM CaCl2, 200 μM ZnCl2, pH 7.5 at room temperature. Reaction progress was monitored by measuring absorbance at 400 nm of paranitrophenolate produced by the reaction for 20 minutes.

4T1-luciferase tumor = 4T1-luciferase tumor model with IR, cGAMP and anti-CTLA-4: tumor volume and survival; format: in vivo, mouse; conditions: single agent intratumoral on day 2, 4 and 7 after 20 Gy IR

T1 sequence (P06802 whole entry): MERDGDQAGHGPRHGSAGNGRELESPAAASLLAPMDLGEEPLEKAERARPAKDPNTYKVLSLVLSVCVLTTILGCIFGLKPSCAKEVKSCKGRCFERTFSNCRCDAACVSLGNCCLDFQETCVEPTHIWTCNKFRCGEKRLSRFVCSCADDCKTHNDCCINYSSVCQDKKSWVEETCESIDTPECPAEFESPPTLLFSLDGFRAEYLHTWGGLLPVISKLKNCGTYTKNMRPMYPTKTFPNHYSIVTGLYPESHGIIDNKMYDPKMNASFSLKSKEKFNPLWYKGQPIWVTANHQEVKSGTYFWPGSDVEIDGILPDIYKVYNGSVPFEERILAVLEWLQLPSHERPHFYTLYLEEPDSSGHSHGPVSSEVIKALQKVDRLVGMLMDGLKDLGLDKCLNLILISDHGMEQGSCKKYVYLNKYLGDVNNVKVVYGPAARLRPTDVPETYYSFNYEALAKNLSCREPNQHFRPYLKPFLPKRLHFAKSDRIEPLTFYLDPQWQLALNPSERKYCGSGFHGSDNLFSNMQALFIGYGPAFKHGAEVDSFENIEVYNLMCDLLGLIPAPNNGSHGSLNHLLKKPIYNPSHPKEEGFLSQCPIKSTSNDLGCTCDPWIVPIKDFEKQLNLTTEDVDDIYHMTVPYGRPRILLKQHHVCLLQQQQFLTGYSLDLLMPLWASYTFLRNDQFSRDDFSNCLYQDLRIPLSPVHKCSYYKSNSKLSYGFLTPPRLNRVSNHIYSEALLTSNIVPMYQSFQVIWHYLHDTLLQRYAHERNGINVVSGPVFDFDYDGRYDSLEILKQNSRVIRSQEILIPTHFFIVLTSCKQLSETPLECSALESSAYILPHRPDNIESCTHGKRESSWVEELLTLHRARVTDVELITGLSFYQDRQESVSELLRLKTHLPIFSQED

- IC50 [1]: 0.5 to 5 µM
Structure (SMILES): COc1ccc2c(N3CCC(CCP(=O)(O)O)CC3)nc(C)nc2c1 [Compound 12]

- IC50 [2]: 0.5 to 5 µM
Structure (SMILES): O=P(O)(O)CCC1CCN(c2ncnc3nc[nH]c23)CC1 [Compound 68]

Structure (SMILES): Nc1nc2c(ncn2[C@@H]2O[C@@H]3COP(=O)(O)O[C@H]4[C@@H](O)[C@H](n5cnc6c(N)ncnc65)O[C@@H]4COP(=O)(O)O[C@@H]2[C@@H]3O)c(=O)[nH]1 [cGAMP, cyclic guanosine monophosphate-adenosine monophosphate]
- tumor shrinkage effect on top of IR treatment (4T1-luciferase tumor): no effect over IR treatment
